{
  "source": "paper PMC6572064",
  "about": "“Discovery of 2-(1-(3-(4-Chloroxyphenyl)-3-oxo- propyl)pyrrolidine-3-yl)-1H-benzo[d]imidazole-4-carboxamide: A Potent Poly(ADP-ribose) Polymerase (PARP) Inhibitor for Treatment of Cancer” (Molecules, 2019)",
  "key": {"PARP-1": {"molecular_target": "T1, PARP-1 (Homo sapiens, UniProt P09874)", "T1 construct": "purchased BPS Bioscience 80569", "T1 sequence (P09874 whole entry)": "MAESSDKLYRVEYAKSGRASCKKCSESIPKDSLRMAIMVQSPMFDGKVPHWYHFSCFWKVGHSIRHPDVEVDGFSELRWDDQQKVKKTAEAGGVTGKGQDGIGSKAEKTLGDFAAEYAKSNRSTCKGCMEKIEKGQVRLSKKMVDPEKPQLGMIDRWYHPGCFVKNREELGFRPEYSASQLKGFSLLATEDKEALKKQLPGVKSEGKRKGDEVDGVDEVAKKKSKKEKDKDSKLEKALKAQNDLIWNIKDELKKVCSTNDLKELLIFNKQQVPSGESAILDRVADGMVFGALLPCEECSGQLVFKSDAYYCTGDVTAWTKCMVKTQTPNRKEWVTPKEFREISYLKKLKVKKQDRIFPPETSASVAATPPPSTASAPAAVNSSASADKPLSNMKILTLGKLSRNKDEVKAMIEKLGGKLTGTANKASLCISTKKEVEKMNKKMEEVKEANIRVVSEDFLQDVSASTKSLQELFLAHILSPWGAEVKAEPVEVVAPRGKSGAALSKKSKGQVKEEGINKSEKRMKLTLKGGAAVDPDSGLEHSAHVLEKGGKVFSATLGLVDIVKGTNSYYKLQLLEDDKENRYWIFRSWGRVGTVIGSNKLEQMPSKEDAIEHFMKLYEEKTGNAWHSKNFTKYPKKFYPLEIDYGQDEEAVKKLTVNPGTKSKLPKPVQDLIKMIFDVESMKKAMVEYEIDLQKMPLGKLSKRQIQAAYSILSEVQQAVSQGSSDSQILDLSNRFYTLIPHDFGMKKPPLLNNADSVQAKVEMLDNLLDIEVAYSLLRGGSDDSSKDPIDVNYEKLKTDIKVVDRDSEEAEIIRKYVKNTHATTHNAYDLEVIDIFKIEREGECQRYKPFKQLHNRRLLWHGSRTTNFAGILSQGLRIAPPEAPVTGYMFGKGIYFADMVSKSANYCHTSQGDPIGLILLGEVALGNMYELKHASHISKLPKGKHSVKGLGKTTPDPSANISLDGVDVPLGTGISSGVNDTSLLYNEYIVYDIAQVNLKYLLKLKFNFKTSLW", "assay": "PARP-1 inhibition assay (PARP-1 Chemiluminescent Assay Kit, BPS Bioscience)", "format": "biochemical", "conditions": "for inhibition at 0.01 µM: 10 nM compound", "procedure": "(§1) The PARP-1 and PARP-2 inhibition assays were performed in outsourcing, by a CRO company, Shanghai Medicilon Inc. (Shanghai, China). […] Briefly, PARP-1 or PARP-2 biotinylated substrate was incubated with compounds or solvent control at varying concentrations and an assay buffer containing the PARP-1 or PARP-2 enzyme."}, "PARP-2": {"molecular_target": "T2, PARP-2 (Homo sapiens, UniProt Q9UGN5)", "T2 construct": "purchased BPS Bioscience 80552", "T2 sequence (Q9UGN5 whole entry)": "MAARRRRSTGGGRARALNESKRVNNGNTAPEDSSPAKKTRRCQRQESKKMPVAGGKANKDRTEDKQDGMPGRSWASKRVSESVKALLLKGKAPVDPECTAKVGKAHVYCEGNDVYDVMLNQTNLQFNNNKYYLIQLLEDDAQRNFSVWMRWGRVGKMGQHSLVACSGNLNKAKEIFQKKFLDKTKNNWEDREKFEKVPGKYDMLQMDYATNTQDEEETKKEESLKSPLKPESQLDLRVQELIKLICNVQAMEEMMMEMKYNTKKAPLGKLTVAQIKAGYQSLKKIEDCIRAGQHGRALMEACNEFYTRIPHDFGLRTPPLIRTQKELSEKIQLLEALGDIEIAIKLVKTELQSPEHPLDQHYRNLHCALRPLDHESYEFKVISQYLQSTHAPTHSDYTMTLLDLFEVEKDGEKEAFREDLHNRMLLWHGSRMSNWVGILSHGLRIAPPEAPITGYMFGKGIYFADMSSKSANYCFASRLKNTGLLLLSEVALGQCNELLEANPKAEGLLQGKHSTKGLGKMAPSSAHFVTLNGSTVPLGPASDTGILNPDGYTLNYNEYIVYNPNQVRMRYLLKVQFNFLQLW", "assay": "PARP-2 inhibition assay (PARP-2 Chemiluminescent Assay Kit, BPS Bioscience)", "format": "biochemical", "conditions": "for inhibition at 0.01 µM: 10 nM compound", "procedure": "as §1"}, "[1]": {"test_system": "MDA-MB-436 (a BRCA-1-mutated breast cancer cell line)", "assay": "Cell proliferation assay, three-day, CellTiter-Glo, MDA-MB-436", "format": "cell-based", "conditions": "for inhibition at 0.00508 µM / inhibition at 0.0152 µM / inhibition at 0.0457 µM / inhibition at 0.41 µM / inhibition at 1.23 µM / inhibition at 3.7 µM / inhibition at 11.11 µM / inhibition at 33.33 µM / inhibition at 100 µM / IC50: Homo sapiens; for inhibition at 0.00508 µM: MDA-MB-436, MDA-MB-436, Conc. 0.00508 uM; for inhibition at 0.0152 µM: MDA-MB-436, MDA-MB-436, Conc. 0.0152 uM; for inhibition at 0.0457 µM: MDA-MB-436, MDA-MB-436, Conc. 0.0457 uM; for inhibition at 0.41 µM: MDA-MB-436, MDA-MB-436, Conc. 0.41 uM; for inhibition at 1.23 µM: MDA-MB-436, MDA-MB-436, Conc. 1.23 uM; for inhibition at 3.7 µM: MDA-MB-436, MDA-MB-436, Conc. 3.70 uM; for inhibition at 11.11 µM: MDA-MB-436, MDA-MB-436, Conc. 11.11 uM; for inhibition at 33.33 µM: MDA-MB-436, MDA-MB-436, Conc. 33.33 uM; for inhibition at 100 µM: MDA-MB-436, MDA-MB-436, Conc. 100.00 uM", "method_in_brief": "(§2)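 Cells seeded overnight in 384-well plates, then exposed to compounds (DMSO stock diluted in medium) for 72 h at 37 °C, 5% CO2. Viability read as CellTiter-Glo luminescence after 60 min at room temperature.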"}, "[2]": {"test_system": "CAPAN-1 (a BRCA-2-mutated pancreatic cancer cell line)", "assay": "Cell proliferation assay, three-day, CellTiter-Glo, CAPAN-1", "format": "cell-based", "conditions": "for IC50 / inhibition at 0.00508 µM / inhibition at 0.0152 µM / inhibition at 0.0457 µM / inhibition at […] / inhibition at 0.41 µM / inhibition at 1.23 µM / inhibition at 3.7 µM / inhibition at 11.11 µM / inhibition at 33.33 µM / inhibition at 100 µM: Homo sapiens; for inhibition at 0.00508 µM: CAPAN-1, 0.00508 uM; for inhibition at 0.0152 µM: CAPAN-1, 0.0152 uM; for inhibition at 0.0457 µM: CAPAN-1, 0.0457 uM; for inhibition at […]: CAPAN-1, 0.14 uM; for inhibition at 0.41 µM: CAPAN-1, 0.41 uM; for inhibition at 1.23 µM: CAPAN-1, 1.23 uM; for inhibition at 3.7 µM: CAPAN-1, 3.70 uM; for inhibition at 11.11 µM: CAPAN-1, 11.11 uM; for inhibition at 33.33 µM: CAPAN-1, 33.33 uM; for inhibition at 100 µM: CAPAN-1, 100.00 uM", "method_in_brief": "as §2"}},
  "note": "Where two headings read alike, the source gives them in different places.",
  "data": [
    {"molecule": "NC(=O)c1cccc2[nH]c(C3CCN(CCC(=O)c4ccc(Cl)cc4)C3)nc12", "note": "(centres unmarked) [Compound 5cj]", "values": [
      {"measurement": "inhibition at 0.01 µM", "setting": "PARP-1; supplement sheet, read-out: 10 nM inhibition% PAPR-1", "value": 65.7, "unit": "%"},
      {"measurement": "inhibition at 0.01 µM", "setting": "PARP-1; read-out: PARP-1 Inhibition % (10 nM)", "value": 65.7, "unit": "%"},
      {"measurement": "IC50", "setting": "PARP-1; read-out: PARP-1 IC50", "value": 0.0039, "unit": "µM"},
      {"measurement": "IC50", "setting": "PARP-1; supplement sheet, read-out: IC50 PAPR-1", "value": 0.00389, "unit": "µM"},
      {"measurement": "inhibition at 0.01 µM", "setting": "PARP-2; supplement sheet, read-out: 10 nM inhibition% PAPR-2", "value": 65.5, "unit": "%"},
      {"measurement": "inhibition at 0.01 µM", "setting": "PARP-2; read-out: PARP-2 Inhibition % (10 nM)", "value": 65.6, "unit": "%"},
      {"measurement": "IC50", "setting": "PARP-2; read-out: PARP-2 IC50", "value": 0.0042, "unit": "µM"},
      {"measurement": "IC50", "setting": "PARP-2; supplement sheet, read-out: IC50 PAPR-2", "value": 0.00422, "unit": "µM"},
      {"measurement": "inhibition at 0.00508 µM", "setting": "[1]; replicate 1, read-out: Inh % 1", "value": -7.9, "unit": "%"},
      {"measurement": "inhibition at 0.00508 µM", "setting": "[1]; replicate 2, read-out: Inh % 2", "value": -1.6, "unit": "%"},
      {"measurement": "inhibition at 0.0152 µM", "setting": "[1]; replicate 1, read-out: Inh % 1", "value": -3, "unit": "%"},
      {"measurement": "inhibition at 0.0152 µM", "setting": "[1]; replicate 2, read-out: Inh % 2", "value": -9.8, "unit": "%"},
      {"measurement": "inhibition at 0.0457 µM", "setting": "[1]; replicate 1, read-out: Inh % 1", "value": -14.2, "unit": "%"},
      {"measurement": "inhibition at 0.0457 µM", "setting": "[1]; replicate 2, read-out: Inh % 2", "value": -14.3, "unit": "%"},
      {"measurement": "inhibition at 0.41 µM", "setting": "[1]; replicate 1, read-out: Inh % 1", "value": -16.8, "unit": "%"},
      {"measurement": "inhibition at 0.41 µM", "setting": "[1]; replicate 2, read-out: Inh % 2", "value": -14.6, "unit": "%"},
      {"measurement": "inhibition at 1.23 µM", "setting": "[1]; replicate 1, read-out: Inh % 1", "value": -8.7, "unit": "%"},
      {"measurement": "inhibition at 1.23 µM", "setting": "[1]; replicate 2, read-out: Inh % 2", "value": -14.5, "unit": "%"},
      {"measurement": "inhibition at 3.7 µM", "setting": "[1]; replicate 1, read-out: Inh % 1", "value": -10.6, "unit": "%"},
      {"measurement": "inhibition at 3.7 µM", "setting": "[1]; replicate 2, read-out: Inh % 2", "value": -13.6, "unit": "%"},
      {"measurement": "inhibition at 11.11 µM", "setting": "[1]; replicate 1, read-out: Inh % 1", "value": 10.8, "unit": "%"},
      {"measurement": "inhibition at 11.11 µM", "setting": "[1]; replicate 2, read-out: Inh % 2", "value": 8.2, "unit": "%"},
      {"measurement": "inhibition at 33.33 µM", "setting": "[1]; replicate 1, read-out: Inh % 1", "value": 93.8, "unit": "%"},
      {"measurement": "inhibition at 33.33 µM", "setting": "[1]; replicate 2, read-out: Inh % 2", "value": 82.1, "unit": "%"},
      {"measurement": "inhibition at 100 µM", "setting": "[1]; replicate 1, read-out: Inh % 1", "value": 99.7, "unit": "%"},
      {"measurement": "inhibition at 100 µM", "setting": "[1]; replicate 2, read-out: Inh % 2", "value": 98.9, "unit": "%"},
      {"measurement": "IC50", "setting": "[1]; MDA-MB-436, 72 h, CellTiter-Glo, read-out: MDA-MB-436 IC50", "value": 17.4, "unit": "µM"},
      {"measurement": "IC50", "setting": "[1]; MDA-MB-436, 72 h, supplement Summary sheet, read-out: IC50", "value": 17.4, "unit": "µM"},
      {"measurement": "IC50", "setting": "[1]; MDA-MB-436, curve fit list, no unit in the cell, concentration in uM, read-out: IC50", "value": 17.4, "unit": "µM"},
      {"measurement": "LogIC50", "setting": "[1]; MDA-MB-436, curve fit on Log (uM) concentrations", "value": 1.241},
      {"measurement": "Bottom", "setting": "[1]; MDA-MB-436, curve fit parameter (Inh %)", "value": -11.12},
      {"measurement": "Top", "setting": "[1]; MDA-MB-436, curve fit parameter (Inh %), '= 100.0' is a constrained value", "value": 99.53},
      {"measurement": "LogIC50", "setting": "[2]; CAPAN-1, curve-fit output, Log (uM)", "value": 1.057},
      {"measurement": "IC50", "setting": "[2]; CAPAN-1, 72 h, CellTiter-Glo, read-out: CAPAN-1 IC50", "value": 11.4, "unit": "µM"},
      {"measurement": "inhibition at 0.00508 µM", "setting": "[2]; replicate 1, read-out: Inh % 1", "value": 9.5, "unit": "%"},
      {"measurement": "inhibition at 0.00508 µM", "setting": "[2]; replicate 2, read-out: Inh % 2", "value": -1.4, "unit": "%"},
      {"measurement": "inhibition at 0.0152 µM", "setting": "[2]; replicate 1, read-out: Inh % 1", "value": 3.1, "unit": "%"},
      {"measurement": "inhibition at 0.0152 µM", "setting": "[2]; replicate 2, read-out: Inh % 2", "value": -2.2, "unit": "%"},
      {"measurement": "inhibition at 0.0457 µM", "setting": "[2]; replicate 1, read-out: Inh % 1", "value": 3.3, "unit": "%"},
      {"measurement": "inhibition at 0.0457 µM", "setting": "[2]; replicate 2, read-out: Inh % 2", "value": 3.4, "unit": "%"},
      {"measurement": "inhibition at […]", "setting": "[2]; replicate 1, read-out: Inh % 1", "value": 13.7, "unit": "%"},
      {"measurement": "inhibition at […]", "setting": "[2]; replicate 2, read-out: Inh % 2", "value": -6.2, "unit": "%"},
      {"measurement": "inhibition at 0.41 µM", "setting": "[2]; replicate 1, read-out: Inh % 1", "value": 2.9, "unit": "%"},
      {"measurement": "inhibition at 0.41 µM", "setting": "[2]; replicate 2, read-out: Inh % 2", "value": 7.7, "unit": "%"},
      {"measurement": "inhibition at 1.23 µM", "setting": "[2]; replicate 1, read-out: Inh % 1", "value": -2.6, "unit": "%"},
      {"measurement": "inhibition at 1.23 µM", "setting": "[2]; replicate 2, read-out: Inh % 2", "value": 0.5, "unit": "%"},
      {"measurement": "inhibition at 3.7 µM", "setting": "[2]; replicate 1, read-out: Inh % 1", "value": 7.7, "unit": "%"},
      {"measurement": "inhibition at 3.7 µM", "setting": "[2]; replicate 2, read-out: Inh % 2", "value": 2.2, "unit": "%"},
      {"measurement": "inhibition at 11.11 µM", "setting": "[2]; replicate 1, read-out: Inh % 1", "value": 54.1, "unit": "%"},
      {"measurement": "inhibition at 11.11 µM", "setting": "[2]; replicate 2, read-out: Inh % 2", "value": 45.1, "unit": "%"},
      {"measurement": "inhibition at 33.33 µM", "setting": "[2]; replicate 1, read-out: Inh % 1", "value": 97.9, "unit": "%"},
      {"measurement": "inhibition at 33.33 µM", "setting": "[2]; replicate 2, read-out: Inh % 2", "value": 96.8, "unit": "%"},
      {"measurement": "inhibition at 100 µM", "setting": "[2]; replicate 1, read-out: Inh % 1", "value": 99.6, "unit": "%"},
      {"measurement": "inhibition at 100 µM", "setting": "[2]; replicate 2, read-out: Inh % 2", "value": 98.9, "unit": "%"},
      {"measurement": "IC50", "setting": "[2]; CAPAN-1, 72 h, supplement Summary sheet, read-out: IC50", "value": 11.4, "unit": "µM"},
      {"measurement": "IC50", "setting": "[2]; CAPAN-1, curve-fit output, concentrations in uM, read-out: IC50", "value": 11.4, "unit": "µM"}
    ]}
  ]
}
